Experiments:
Assay in all cases: relative viability (nuclei count vs DMSO), 5 days (fraction); higher = more cells survive
[1] = compound: C1=CC2=NC=CN=C2C=C1/C=C/3\C(=O)NC(=O)S3 + C[C@@H](Oc1cc(-c2cnn(C3CCNCC3)c2)cnc1N)c1c(Cl)ccc(F)c1Cl [Crizotinib] (partner 1 µM)
Procedure, shortened: (§1)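 Relative viability divides the nuclei count in treated wells by that in vehicle wells. Lung cancer cell lines were seeded in 1536-well plates, dosed by pin tool the next day, and fixed and stained after 5 days in one step with final 0.05% Triton X-100, 1% formaldehyde and 1 ug/ml Hoechst. Dosing was a single drug or a fixed anchor-drug dose plus five library-drug doses (not always all listed) in √10 steps, and values are medians of duplicate plates imaged at 4×.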

[2] = compound: C1=CC2=NC=CN=C2C=C1/C=C/3\C(=O)NC(=O)S3 + Nc1ncn([C@H]2C[C@H](O)[C@@H](CO)O2)c(=O)n1 [Decitabine] (partner 2 µM)
Procedure, shortened: as §1

BGJ398 + Tozasertib = compound: CCN1CCN(c2ccc(Nc3cc(N(C)C(=O)Nc4c(Cl)c(OC)cc(OC)c4Cl)ncn3)cc2)CC1 [BGJ398] + Cc1cc(Nc2cc(N3CCN(C)CC3)nc(Sc3ccc(NC(=O)C4CC4)cc3)n2)n[nH]1 [Tozasertib] (partner 0.1 µM)
Procedure, shortened: as §1

BGJ398 + Vorinostat = compound: CCN1CCN(c2ccc(Nc3cc(N(C)C(=O)Nc4c(Cl)c(OC)cc(OC)c4Cl)ncn3)cc2)CC1 [BGJ398] + O=C(CCCCCCC(=O)Nc1ccccc1)NO [Vorinostat] (partner 1 µM)
Procedure, shortened: as §1

Row | Cell Line | relative viability ([1]; first compound 0.02 µM) | relative viability ([1]; first compound 0.06325 µM) | relative viability ([1]; first compound 0.2 µM) | relative viability ([1]; first compound 0.6325 µM) | relative viability ([1]; first compound 2 µM) | relative viability ([2]; first compound 0.02 µM) | relative viability ([2]; first compound 0.06325 µM) | relative viability ([2]; first compound 0.2 µM) | relative viability ([2]; first compound 0.6325 µM) | relative viability ([2]; first compound 2 µM) | relative viability (BGJ398 + Tozasertib; first compound 0.01 µM) | relative viability (BGJ398 + Tozasertib; first compound 0.03162 µM) | relative viability (BGJ398 + Tozasertib; first compound 0.1 µM) | relative viability (BGJ398 + Tozasertib; first compound 0.3162 µM) | relative viability (BGJ398 + Tozasertib; first compound 1 µM) | relative viability (BGJ398 + Vorinostat; first compound 0.01 µM) | relative viability (BGJ398 + Vorinostat; first compound 0.03162 µM) | relative viability (BGJ398 + Vorinostat; first compound 0.1 µM) | relative viability (BGJ398 + Vorinostat; first compound 0.3162 µM) | relative viability (BGJ398 + Vorinostat; first compound 1 µM)
1 | COR-L23 | 0.65 | 0.649 | 0.576 | 0.582 | 0.699 | 0.481 | 0.466 | 0.445 | 0.414 | 0.369 | 0.216 | 0.248 | 0.205 | 0.188 | 0.182 | 0.443 | 0.52 | 0.445 | 0.485 | 0.484
2 | ABC-1 | 1.15 | 1.05 | 1.21 | 0.91 | 1.09 | 1.04 | 1.31 | 1.4 | 1.1 | 0.806 | 0.186 | 0.168 | 0.197 | 0.173 | 0.198 | 1.61 | 0.855 | 1.04 |  | 0.937
3 | SW 900 |  |  |  |  |  | 0.418 | 0.356 | 0.515 |  | 0.433 | 0.55 | 0.552 | 0.495 | 0.484 | 0.429 | 0.534 | 0.425 | 0.562 | 0.261 | 0.24
4 | NCI-H838 | 0.778 | 1.12 | 0.737 | 0.751 | 0.823 | 0.429 | 0.46 | 0.415 | 0.481 | 0.39 | 0.317 | 0.305 | 0.262 | 0.234 | 0.201 | 0.664 | 0.697 | 0.695 | 0.633 | 0.629
5 | NCI-H1648 |  |  |  |  |  | 0.33 | 0.549 | 0.57 |  | 0.539 | 0.304 | 0.58 | 0.469 | 0.399 | 0.44 | 1.6 |  | 0.363 | 0.46 | 0.369
6 | A549 | 0.791 | 0.901 | 0.782 | 0.671 | 0.646 | 0.292 | 0.245 | 0.297 | 0.273 | 0.293 |  |  |  |  |  |  |  |  |  | 
7 | A-427 | 0.848 | 0.792 | 0.939 | 0.866 | 0.843 | 0.541 | 0.583 | 0.55 | 0.538 | 0.491 | 0.192 | 0.153 | 0.162 | 0.179 | 0.152 | 0.909 | 0.953 | 0.895 | 0.698 | 0.713
8 | NCI-H1792 | 0.936 | 0.872 | 1.02 | 0.792 | 0.668 | 0.535 |  | 0.6 | 0.513 | 0.374 |  |  |  |  |  |  |  |  |  | 
9 | LCLC-97TM1 | 0.391 | 0.344 | 0.375 | 0.354 | 0.218 | 0.293 | 0.244 | 0.229 | 0.247 | 0.221 | 0.239 | 0.224 | 0.293 | 0.23 | 0.35 | 0.533 | 0.691 | 0.743 | 0.781 | 0.753
10 | NCI-H1703 | 0.638 | 0.701 | 0.656 | 0.811 | 0.674 |  |  |  |  |  |  |  |  |  |  |  |  |  |  | 
11 | LCLC-103H | 1.08 | 0.943 | 1.06 | 1.03 | 0.925 | 0.71 | 0.798 | 0.707 | 0.747 | 0.709 | 0.429 | 0.445 | 0.424 | 0.487 | 0.341 | 0.769 | 0.784 | 0.68 | 0.697 | 0.602
12 | PC-3 [JPC-3] | 0.954 | 1.01 | 0.944 | 1.01 | 1.01 | 0.785 | 0.911 | 0.822 | 0.801 | 0.868 | 0.958 |  | 0.867 | 0.829 | 0.842 | 1.04 |  | 0.52 |  | 0.705
13 | BEN | 0.948 | 0.856 | 0.929 | 0.795 | 0.871 | 0.715 | 0.774 | 0.886 | 0.691 | 0.635 | 0.587 | 0.488 | 0.543 | 0.513 | 0.527 | 0.533 | 0.557 | 0.594 | 0.553 | 0.544
14 | NCI-H1666 | 0.992 | 1.02 | 1.05 | 1.01 | 1.07 | 0.717 | 0.709 | 0.775 | 0.691 | 0.672 | 0.702 | 0.619 | 0.606 | 0.587 | 0.558 | 1.06 | 0.963 | 1.05 | 0.986 | 0.916
15 | Calu-6 | 0.781 | 0.744 | 0.758 | 0.704 | 0.781 |  |  |  |  |  |  |  |  |  |  |  |  |  |  | 
16 | NCI-H2342 |  |  |  |  |  | 0.726 | 0.664 | 0.805 | 0.69 | 0.716 | 0.415 | 0.49 | 0.655 | 0.536 | 0.505 | 0.845 | 0.703 | 0.959 | 0.711 | 0.801
17 | EBC-1 | 0.17 | 0.217 | 0.21 | 0.178 | 0.171 |  |  |  |  |  |  |  |  |  |  |  |  |  |  | 
18 | NCI-H1299 | 0.955 | 1.03 | 0.932 | 0.89 | 0.986 |  |  |  |  |  |  |  |  |  |  |  |  |  |  | 
19 | NCI-H2228 | 0.407 | 0.433 | 0.587 | 0.294 | 0.428 |  |  |  |  |  | 0.235 | 0.255 | 0.224 | 0.188 | 0.204 | 0.583 | 0.761 | 0.706 | 0.531 | 0.542
20 | NCI-H522 |  |  |  |  |  | 0.643 | 0.706 | 0.594 | 0.74 | 0.683 | 0.5 | 0.552 | 0.445 | 0.586 | 0.483 | 0.926 | 0.802 | 0.935 | 1.01 | 0.888
21 | IA-LM | 0.654 |  | 0.857 | 0.998 | 0.718 |  |  |  |  |  |  |  |  |  |  | 0.797 | 0.806 | 1.09 | 0.972 | 0.894
22 | NCI-H1793 |  |  |  |  |  | 0.417 | 0.391 | 0.559 | 0.447 | 0.552 | 0.337 | 0.351 | 0.3 | 0.3 | 0.287 | 0.767 | 0.574 | 0.728 | 0.515 | 0.421
23 | CAL-12T | 0.572 | 0.802 | 0.901 | 0.661 | 0.683 |  |  |  |  |  | 0.285 | 0.324 | 0.279 | 0.233 | 0.243 | 0.666 | 1.08 | 0.703 | 0.895 | 0.941
